Here are results for six compounds from US5235055A, “Antipsychotic quinoline derivatives of benzodioxanmethylamine” (American Home Products Corporation, priority 1992, dated 1993).

Where two headings read alike, the source gives them in different places.

What is called IC50 is the midpoint of a concentration-inhibition curve. A low value points to greater potency in that assay. A word on the ED50: it is the dose at which the effect has come halfway, by size or by number of responders. A lower ED50 goes with greater potency.

The subject of assay [1] is 5-HT1A receptor. To be noted: Fozard et al. 1987, cited from earlier work.
Assay [2] deals with synthesis of dopamine. The experiment in a line: Effect on dopamine synthesis: inhibition of dopa accumulation in GBL/NSD-1015-treated rats (Walters and Roth). Format: in vivo, rats (male, Sprague-Dawley). To be noted: Rattus norvegicus, sc, read-out: Dopa Accumulation (% inhib. @ 10 mg/kg, sc). How it is done:
The effect of the compounds of the invention on the synthesis of dopamine was established by the method of Walters and Roth, Naunyn-Schmiedeberg's Arch. Pharmacol. 296:5-14, 1976, in which rats (male, Sprague-Dawley, Charles River, 200-350 g) were administered vehicle or test drug ten minutes prior to the administration of gamma butyrolactone (GBL; 750 mg/kg, ip to inhibit dopaminergic impulse flow) and 20 minutes prior to NSD-1015 (100 mg/kg, ip to prevent the conversion of dopa to dopamine). Thirty minutes after NSD-1015 all rats were decapitated and the nucleus accumbens and the striatum were removed for analysis. Following perchloric acid extraction of the tissue, the extracts were placed over alumina columns to collect and concentrate dopa and other catechols. This eluate was then subjected to HPLC analysis using electrochemical detection to quantify the levels of dopa present. Dopamine autoreceptor agonists, under the conditions used above, inhibit dopa accumulation.

For assay [3], the target named is T1, dopamine D2 receptor (Rattus norvegicus, UniProt P61169).
T1 construct: homogenized rat striatal brain tissue; from tissue; host or cells: rat striatum (homogenized brain tissue)
The experiment in a line: Affinity for dopamine D2 receptor (3H-quinpirole, rat striatal homogenate). Type of assay: binding. To be noted: rat striatal brain tissue. How it is done:
Affinity for the dopamine D2 receptor was established by a modification of the standard experimental test procedure of Seemen and Schaus, European Journal of Pharmacology 203: 105-109, 1991, wherein homogenized rat striatal brain tissue is incubated with ^3 H-quinpirole and various concentrations of test compound, filtered and washed and counted in a Betaplate scintillation counter.

For assay [4], the system named is mouse locomotor activity. The experiment in a line: Reduction of mouse locomotor activity (hypolocomotion; Martin and Bendensky). Type of assay: in vivo, mice (male, CF-1). To be noted: ip, horizontal activity counts 10 to 20 minutes after dosing. As to the method: The antipsychotic activity of the compounds of the invention was further established by a determination of the compounds' ability to reduce mouse locomotor activity according to the method of Martin and Bendensky, J. Pharmacol. Exp. Therap. 229:706-711, 1984, in which mice (male, CF-1, Charles River, 20-30 g) were injected with vehicle or various doses of each drug and locomotor activity was measured for 30 minutes using automated infrared activity monitors (Omnitech--8×8 inch open field) located in a darkened room. ED50 's were calculated from the horizontal activity counts collected from 10 to 20 minutes after dosing using a nonlinear regression analysis with inverse prediction.

T1 sequence (P61169 whole entry): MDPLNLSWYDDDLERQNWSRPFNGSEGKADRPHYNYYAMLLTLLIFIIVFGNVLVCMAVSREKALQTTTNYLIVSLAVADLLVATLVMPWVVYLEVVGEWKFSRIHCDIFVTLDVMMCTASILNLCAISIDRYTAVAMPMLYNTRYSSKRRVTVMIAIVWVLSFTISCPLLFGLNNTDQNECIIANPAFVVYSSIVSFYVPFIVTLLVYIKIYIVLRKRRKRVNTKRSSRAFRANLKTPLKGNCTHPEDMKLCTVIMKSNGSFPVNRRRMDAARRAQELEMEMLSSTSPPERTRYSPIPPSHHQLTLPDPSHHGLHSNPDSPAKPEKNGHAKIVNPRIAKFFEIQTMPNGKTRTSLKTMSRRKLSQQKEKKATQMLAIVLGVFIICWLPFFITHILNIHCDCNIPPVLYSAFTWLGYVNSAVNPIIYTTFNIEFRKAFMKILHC

For `O=C1CC2(CCCC2)CC(=O)N1CCCCNCC1COc2ccccc2O1` (centres unmarked) [MDL 72832, 8-[4-(1,4-benzodioxan-2-ylmethylamino)butyl]-8-azaspiro[4.5]decane-7,9-dione], the “ligand for 5-HT1A receptors (in words)” value in assay [1] is “selective and stereospecific”.
As to `c1ccc2c(c1)OCC(CNCCCOc1ccc3cccnc3c1)O2` (centres unmarked) [Example 1, N-[3-(Quinolin-7-yloxy)propyl]-2,3-dihydro-1,4-benzodioxin-2-methanamine], the values for the inhibition at 10 mg/kg in assay [2] (limbic (L) brain tissue) and in assay [2] (striatal (S) brain tissue) were 29% and 44%, respectively.
For the compound `COc1ccc2c(c1)OC(CNCCCOc1ccc3cccnc3c1)CO2` (centres unmarked) [Example 4, N-[3-(Quinolin-7-yloxy)propyl]-2,3-dihydro-7-methoxy-1,4-benzodioxin-2-methanamine], in assay [3], the inhibition at 0.1 µM is 55%.
Regarding `O=C1CC2(CCCC2)CC(=O)N1CCCCNCC1COc2ccccc2O1` (single isomer, unassigned; (-)) [(-)-MDL 72832], in assay [1] ((-)-isomer vs dextrorotary isomer), the “binding at the 5-HT1A receptor site relative to the dextrorotary isomer (times as much)” value was 32 times.
Turning to `c1cnc2cc(OCCCNCC3COc4cc5c(cc4O3)OCO5)ccc2c1` (centres unmarked) [Example 2, N-[3-(Quinolin-7-yloxy)propyl]-2,3-dihydro-6,7-methylenedioxy-1,4-benzodioxin-2-methanamine], in assay [3], the IC50 amounted to 63 nM. Also, the inhibition at 10 mg/kg in assay [2] (limbic (L) brain tissue) stood at 60.4%. Further, the ED50 in assay [4] worked out at 3 mg/kg.
In turn, `c1cc(OCCCNCC2COc3cc4c(cc3O2)OCO4)c2cccnc2c1` (centres unmarked) [Example 3, N-[3-(Quinolin-5-yloxy)propyl]-2,3-dihydro-6,7-methylenedioxy-1,4-benzodioxin-2-methanamine] had an inhibition at 0.1 µM in assay [3] of 25%. For the same compound, the inhibition at 10 mg/kg in assay [2] (limbic (L) brain tissue) was determined as 42.6%. This compound gave an ED50 in assay [4] of 12.6 mg/kg.
